system: tetO-CMV promoter; test: Luciferase activity in electroporated HeLa-16 cells treated with desferrioxamine, cobaltous chloride or 2-2′-dipyridyl; assay type: cell-based; conditions: HeLa-16 cells electroporated with pTHV, 24 hours
Protocol: HeLa cells were maintained in Dulbecco Modified Medium with Glutamax (Gibco) supplemented with 10% fetal calf serum. For transfection, 5×10e6 HeLa cells were electroporated with a Gene Pulser (Biorad) at 200 V, 960 microfarads in the presence of 25 μg of each plasmid, NaCl 3M in 50 microliters. For control experiments a Bluescript pBSK+ was electroporated instead of the plasmid of interest. Each suspension of cells was then split in aliquots and incubated either in medium alone or in medium supplemented with doxycycline (1 μg/ml), cobaltous chloride (100 μM), desferrioxamine (Def) (130 μM), 2-2′-dipyridyl (DP) (100 μM) or the MG132 proteasome inhibiteur (2.5 μM). For hypoxic conditions cells were placed at 37° C. in a closed chamber with 1% oxygen, 5% CO2 and 94% N2 (Air Liquide).
Electroporated cells were trypsinized and the pellet was lysed in 200 μl LB buffer (Tris Phosphate pH 7.8 25 mM, MgCl2 8 mM, dithiothreitol 1 mM, Triton×100 1%, glycerol 15%). The lysat was then centrifugated at 4° C., the supernatant was collected and luciferase activity was measured using a luminometer (Lumat LB 9501, Berthold). Results were expressed as relative luciferase activity per mg of cell lysates protein. Protein concentration determination was performed with the BCA Protein Assay Kit (Pierce).
The reporter plasmid encoded for a luciferase gene inserted downstream of a minimal CMV promoter that contains seven binding sites for the E.Coli tetracycline repressor (tetO-CMV)(20). HeLa cells were stably transfected with this vector and one clone named HeLa-16 was used in all transient transfection assays.
HeLa-16 cells were electroporated with each pTHV or pTV. After electroporation cells were split into aliquots, and exposed in parallel to 21% O2, 1% O2, 2,2′-dipyridyl (DP), desferrioxamine (Def), cobaltous chloride (Co) or MG132. Luciferase activities were measured 24 hours later and normalised as RLU (relative light unit) per mg of proteins.

Row | SMILES | effectiveness of the chemical in inducing transactivation by pTHV
1 | c1ccc(-c2ccccn2)nc1 [DP, 2-2′-dipyridyl] | most effective
2 | [Cl-].[Cl-].[Co+2] [cobalt, cobaltous chloride] | lower than with DP
3 | CC(=O)N(O)CCCCCNC(=O)CCC(=O)N(O)CCCCCNC(=O)CCC(=O)N(O)CCCCCN [desferrioxamine] | lower than with DP

Source: patent US20040018606A1, “Control of protein systemic delivery by hypoxia using a tet-HIF1-alpha chimeric transactivator” (priority 2002, published 2004)
